Measurements taken from patent US20170190671A1, “BIS(ARYL)CATECHOL DERIVATIVES AS HERBICIDES” (E I DU PONT DE NEMOURS AND COMPANY, priority 2014, published 2017).

Assays:
Format in all cases: in vivo
[1] = tested on: Italian ryegrass (Lolium multiflorum); assay: Test C preemergence; conditions: Lolium multiflorum, pre-emergence, 336 h, scale 0 to 100, read-out: Plant response rating, Ryegrass, Italian
Method in brief: (§1)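 Seeded loam-sand soil (preemergence) or young potted plants of 2-18 cm (postemergence) received test chemical formulated with surfactant in a non-phytotoxic solvent. Pots were kept in the greenhouse for 13-15 days before a visual 0-100 control rating relative to controls.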

[2] = tested on: barnyardgrass (Echinochloa crus-galli); assay: Test C preemergence; conditions: Echinochloa crus-galli, pre-emergence, read-out: Plant response rating, Barnyardgrass
Method in brief: as §1

[3] = tested on: blackgrass (Alopecurus myosuroides); assay: Test C preemergence; conditions: Alopecurus myosuroides, pre-emergence, 336 h, scale 0 to 100, read-out: Plant response rating, Blackgrass
Method in brief: as §1

corn (Zea mays) = assay: Test C preemergence; conditions: Zea mays, pre-emergence, 336 h, scale 0 to 100
Method in brief: as §1

[4] = tested on: galium (catchweed bedstraw, Galium aparine); assay: Test C preemergence; conditions: Galium, pre-emergence, 336 h, scale 0 to 100, read-out: Plant response rating, Galium
Method in brief: as §1

[5] = tested on: johnsongrass (Sorghum halepense); assay: Test C preemergence; conditions: Sorghum halepense, pre-emergence, 336 h, scale 0 to 100, read-out: Plant response rating, Johnsongrass
Method in brief: as §1

[6] = tested on: lambsquarters (Chenopodium album); assay: Test C preemergence; conditions: Chenopodium album, pre-emergence, 336 h, scale 0 to 100, read-out: Plant response rating, Lambsquarters
Method in brief: as §1

[7] = tested on: morningglory (Ipomoea coccinea); assay: Test C preemergence; conditions: Ipomoea, pre-emergence, 336 h, scale 0 to 100, read-out: Plant response rating, Morningglory
Method in brief: as §1

[8] = tested on: pigweed (Amaranthus retroflexus); assay: Test C preemergence; conditions: Amaranthus retroflexus, pre-emergence, 336 h, scale 0 to 100, read-out: Plant response rating, Pigweed
Method in brief: as §1

[9] = tested on: ragweed (common ragweed, Ambrosia elatior); assay: Test C preemergence; conditions: Ambrosia artemisiifolia, pre-emergence, 336 h, scale 0 to 100, read-out: Plant response rating, Ragweed
Method in brief: as §1

soybean (Glycine max) = assay: Test C preemergence; conditions: Glycine max, pre-emergence, scale 0 to 100, read-out: Plant response rating, Soybean
Method in brief: as §1

[10] = tested on: velvetleaf (Abutilon theophrasti); assay: Test C preemergence; conditions: Abutilon theophrasti, pre-emergence, scale 0 to 100, read-out: Plant response rating, Velvetleaf
Method in brief: as §1

[11] = tested on: waterhemp (common waterhemp, Amaranthus rudis); assay: Test C preemergence; conditions: Amaranthus tuberculatus, pre-emergence, scale 0 to 100, read-out: Plant response rating, Waterhemp
Method in brief: as §1

[12] = tested on: yellow nutsedge (Cyperus esculentus); assay: Test C preemergence; conditions: Cyperus, pre-emergence, 336 h, scale 0 to 100, read-out: Plant response rating, Nutsedge, Yellow
Method in brief: as §1

[13] = tested on: giant foxtail (Setaria faberii); assay: Test E preemergence; conditions: scale 0 to 100
From the text: Seeds of plant species selected from corn (Zea mays), soybean (Glycine max), velvetleaf (Abutilon theophrasti), cocklebur (common cocklebur, Xanthium strumarium), lambsquarters (Chenopodium album), wild poinsettia (Euphorbia heterophylla), palmer pigweed (Amaranthus palmeri), waterhemp (common waterhemp, Amaranthus rudis), surinam grass (Brachiaria decumbens), large (Lg) crabgrass (Digitaria sanguinalis), Brazilian crabgrass (Digitaria horizontalis), fall panicum (Panicum dichotomiflorum), giant foxtail (Setaria faberii), green foxtail (Setaria viridis), goosegrass (Eleusine indica), johnsongrass (Sorghum halepense), ragweed (common ragweed, Ambrosia elatior), barnyardgrass (Echinochloa crus-galli), sandbur (southern sandbur, Cenchrus echinatus), arrowleaf sida (Sida rhombifolia), Italian ryegrass (Lolium multiflorum), dayflower (Virginia (VA) dayflower, Commelina virginica), field bindweed (Convolvulus arvensis), morningglory (Ipomoea coccinea), nightshade (eastern black nightshade, Solanum ptycanthum), kochia (Kochia scoparia), yellow nutsedge (Cyperus esculentus), horseweed (Conyza canadensis), and hairy beggarticks (Bidens pilosa), were planted into a silt loam soil and treated preemergence with test chemicals formulated in a non-phytotoxic solvent mixture which included a surfactant.
At the same time, plants from these crop and weed species and also waterhemp_RES1, (ALS & Triazine resistant common waterhemp, Amaranthus rudis), and waterhemp_RES2, (ALS & HPPD resistant common waterhemp, Amaranthus rudis) were planted in pots containing Redi-Earth® planting medium (Scotts Company, 14111 Scottslawn Road, Marysville, Ohio 43041) comprising spaghnum peat moss, vermiculite, wetting agent and starter nutrients were treated with postemergence applications of test chemicals formulated in the same manner. Plants ranged in height from 2 to 18 cm for postemergence treatments (1- to 4-leaf stage). Treated plants and controls were maintained in a greenhouse for 14 to 21 days, after which time all species were compared to controls and visually evaluated. Plant response ratings, summarized in Table E, are based on a scale of 0 to 100 where 0 is no effect and 100 is complete control. A dash (-) response means no test result.

Clc1cnc(Oc2cccc(Br)c2Oc2ncc(Cl)cn2)nc1 [Compound 19, 2,2′-[[3-bromo-1,2-phenylene]bis(oxy)]bis[5-chloropyrimidine]]
pest or weed control at 31 g/ha ([1]; 31 g ai/ha, preemergence): 50%
pest or weed control at 62 g/ha ([1]; 62 g ai/ha, preemergence): 70%
pest or weed control at 125 g/ha ([1]; 125 g ai/ha, preemergence): 90%
pest or weed control at 16 g/ha ([1]; Preemergence, 16 g ai/ha): 5%
pest or weed control at 31 g/ha ([2]; 31 g ai/ha, preemergence, scale 0 to 100): 55%
pest or weed control at 62 g/ha ([2]; 62 g ai/ha, preemergence, scale 0 to 100): 100%
pest or weed control at 125 g/ha ([2]; 125 g ai/ha, preemergence, scale 0 to 100): 100%
pest or weed control at 16 g/ha ([2]; Preemergence, 16 g ai/ha, scale 0 to 100 (0 no effect, 100 complete control)): 15%
pest or weed control at 31 g/ha ([3]; 31 g ai/ha, preemergence): 40%
pest or weed control at 62 g/ha ([3]; 62 g ai/ha, preemergence): 90%
pest or weed control at 125 g/ha ([3]; 125 g ai/ha, preemergence): 95%
pest or weed control at 16 g/ha ([3]; Preemergence, 16 g ai/ha): 30%
Corn plant response rating (crop injury, 0 = no effect, 100 = complete kill) at 31 g/ha (corn (Zea mays); 31 g ai/ha, preemergence): 25%
Corn plant response rating (crop injury, 0 = no effect, 100 = complete kill) at 62 g/ha (corn (Zea mays); 62 g ai/ha, preemergence): 80%
Corn plant response rating (crop injury, 0 = no effect, 100 = complete kill) at 125 g/ha (corn (Zea mays); 125 g ai/ha, preemergence): 90%
Corn plant response rating (crop injury, 0 = no effect, 100 = complete kill) at 16 g/ha (corn (Zea mays); Preemergence, 16 g ai/ha): 5%
pest or weed control at 31 g/ha ([4]; 31 g ai/ha, preemergence): 100%
pest or weed control at 62 g/ha ([4]; 62 g ai/ha, preemergence): 100%
pest or weed control at 125 g/ha ([4]; 125 g ai/ha, preemergence): 100%
pest or weed control at 16 g/ha ([4]; Preemergence, 16 g ai/ha): 85%
pest or weed control at 31 g/ha ([5]; 31 g ai/ha, preemergence): 50%
pest or weed control at 62 g/ha ([5]; 62 g ai/ha, preemergence): 85%
pest or weed control at 125 g/ha ([5]; 125 g ai/ha, preemergence): 98%
pest or weed control at 16 g/ha ([5]; Preemergence, 16 g ai/ha): 35%
pest or weed control at 31 g/ha ([6]; 31 g ai/ha, preemergence): 100%
pest or weed control at 62 g/ha ([6]; 62 g ai/ha, preemergence): 100%
pest or weed control at 125 g/ha ([6]; 125 g ai/ha, preemergence): 100%
pest or weed control at 16 g/ha ([6]; Preemergence, 16 g ai/ha): 98%
pest or weed control at 31 g/ha ([7]; 31 g ai/ha, preemergence): 45%
pest or weed control at 62 g/ha ([7]; 62 g ai/ha, preemergence): 90%
pest or weed control at 125 g/ha ([7]; 125 g ai/ha, preemergence): 100%
pest or weed control at 16 g/ha ([7]; Preemergence, 16 g ai/ha): 5%
pest or weed control at 31 g/ha ([8]; 31 g ai/ha, preemergence): 100%
pest or weed control at 62 g/ha ([8]; 62 g ai/ha, preemergence): 100%
pest or weed control at 125 g/ha ([8]; 125 g ai/ha, preemergence): 100%
pest or weed control at 16 g/ha ([8]; Preemergence, 16 g ai/ha): 100%
pest or weed control at 31 g/ha ([9]; 31 g ai/ha, preemergence): 30%
pest or weed control at 62 g/ha ([9]; 62 g ai/ha, preemergence): 55%
pest or weed control at 125 g/ha ([9]; 125 g ai/ha, preemergence): 60%
pest or weed control at 16 g/ha ([9]; Preemergence, 16 g ai/ha): 0%
plant injury at 31 g/ha (soybean (Glycine max); 31 g ai/ha, preemergence): 50%
plant injury at 62 g/ha (soybean (Glycine max); 62 g ai/ha, preemergence): 90%
plant injury at 125 g/ha (soybean (Glycine max); 125 g ai/ha, preemergence): 80%
plant injury at 16 g/ha (soybean (Glycine max); Preemergence, 16 g ai/ha): 25%
pest or weed control at 31 g/ha ([10]; 31 g ai/ha, preemergence): 98%
pest or weed control at 62 g/ha ([10]; 62 g ai/ha, preemergence): 100%
pest or weed control at 125 g/ha ([10]; 125 g ai/ha, preemergence): 100%
pest or weed control at 16 g/ha ([10]; Preemergence, 16 g ai/ha): 60%
pest or weed control at 31 g/ha ([11]; 31 g ai/ha, preemergence): 100%
pest or weed control at 62 g/ha ([11]; 62 g ai/ha, preemergence): 100%
pest or weed control at 125 g/ha ([11]; 125 g ai/ha, preemergence): 100%
pest or weed control at 16 g/ha ([11]; Preemergence, 16 g ai/ha): 100%
pest or weed control at 31 g/ha ([12]; 31 g ai/ha, preemergence): 5%
pest or weed control at 62 g/ha ([12]; 62 g ai/ha, preemergence): 20%
pest or weed control at 125 g/ha ([12]; 125 g ai/ha, preemergence): 55%
pest or weed control at 16 g/ha ([12]; Preemergence, 16 g ai/ha): 0%
Plant response rating, Foxtail, Giant ([13]; 16 g ai/ha): 0
Plant response rating, Foxtail, Giant ([13]; 31 g ai/ha): 95
Plant response rating, Foxtail, Giant ([13]; 62 g ai/ha): 100
Plant response rating, Foxtail, Giant ([13]; 125 g ai/ha): 100
